IC50 and Ki data for eleven compounds are collected here from ChEMBL document CHEMBL3585250, “New pyrazolo[4,3-e][1,2,4]triazine sulfonamides as carbonic anhydrase inhibitors” (Bioorg Med Chem, 2015).

For assay [1], the system named is MDA-MB-231. The experiment in a line: Inhibition of DNA synthesis in human MDA-MB-231 cells assessed as reduction in [3H]-thymidine incorporation incubated for 24 hrs by liquid scintillation counting method. It counts as functional, cell-based. (In general: Uptake of a labelled nucleoside into DNA is a usual measure of proliferation.)
In a further assay the target is Carbonic anhydrase 9 (Homo sapiens, UniProt Q16790). Description: Inhibition of human carbonic anhydrase-9 pre-incubated for 15 mins by stopped-flow CO2 hydration assay based Lineweaver-Burk plot method.
Assay [2] has as its system MCF7. Description: Cytotoxic activity against human MCF7 cells assessed as reduction in cell viability incubated for 24 hrs by MTT assay. The note with it: MCF7, 24 h. It is filed as functional, cell-based.
A further assay addresses Carbonic anhydrase 12 (Homo sapiens, UniProt O43570). The experiment in a line: Inhibition of human carbonic anhydrase-12 pre-incubated for 15 mins by stopped-flow CO2 hydration assay based Lineweaver-Burk plot method.
For the next assay, the target named is Carbonic anhydrase 1 (Homo sapiens, UniProt P00915). Description: Inhibition of human carbonic anhydrase-1 pre-incubated for 15 mins by stopped-flow CO2 hydration assay based Lineweaver-Burk plot method.
Sequence of Carbonic anhydrase 1 (P00915 whole entry): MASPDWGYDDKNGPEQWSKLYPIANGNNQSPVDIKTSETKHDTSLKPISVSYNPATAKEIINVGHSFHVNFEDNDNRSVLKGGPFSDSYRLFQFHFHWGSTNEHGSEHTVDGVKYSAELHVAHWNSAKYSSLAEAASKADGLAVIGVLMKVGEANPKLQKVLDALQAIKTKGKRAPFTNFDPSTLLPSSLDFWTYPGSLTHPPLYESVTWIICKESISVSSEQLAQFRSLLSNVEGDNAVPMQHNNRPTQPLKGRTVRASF
Assay [3] has as its system MCF7. Description: Inhibition of DNA synthesis in human MCF7 cells assessed as reduction in [3H]-thymidine incorporation incubated for 24 hrs by liquid scintillation counting method. It counts as functional, cell-based.
Assay [4] has as its system MDA-MB-231. Description: Cytotoxic activity against human MDA-MB-231 cells assessed as reduction in cell viability incubated for 24 hrs by MTT assay. It is filed as functional, cell-based. The note with it: MDA-MB-231, 24 h. (In general: Formazan colour is commonly taken as a measure of viable cells.)
For another assay, the target named is Carbonic anhydrase 2 (Homo sapiens, UniProt P00918). The experiment in a line: Inhibition of human carbonic anhydrase-2 pre-incubated for 15 mins by stopped-flow CO2 hydration assay based Lineweaver-Burk plot method.

Sequence of Carbonic anhydrase 12 (O43570 whole entry): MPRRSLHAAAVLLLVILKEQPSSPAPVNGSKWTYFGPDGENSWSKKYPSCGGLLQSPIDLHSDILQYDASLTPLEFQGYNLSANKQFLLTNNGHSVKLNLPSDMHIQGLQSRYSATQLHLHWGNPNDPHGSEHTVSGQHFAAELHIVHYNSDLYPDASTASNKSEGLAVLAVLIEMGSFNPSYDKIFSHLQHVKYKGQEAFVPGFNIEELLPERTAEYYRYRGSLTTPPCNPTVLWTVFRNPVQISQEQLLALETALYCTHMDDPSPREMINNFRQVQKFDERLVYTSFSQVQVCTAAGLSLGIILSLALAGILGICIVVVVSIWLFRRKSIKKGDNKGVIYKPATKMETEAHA

Take `CCOc1ccc(S(=O)(=O)N2CCN(C)CC2)cc1-c1nnc2c(n1)c(C)nn2-c1ccc(S(=O)(=O)N2CCN(C)CC2)cc1`: the half-inhibitory concentration (IC50) with MDA-MB-231 [1], with MCF7 [2], in the assay with MCF7 [3] and in the assay on MDA-MB-231 [4] was more than 200 µM throughout. In addition, the Ki at Carbonic anhydrase 9 was 0.0296 µM; at Carbonic anhydrase 12, 0.536 µM; at Carbonic anhydrase 1 it was 0.467 µM; on Carbonic anhydrase 2, more than 50 µM.

Consider `CCOc1ccc(S(N)(=O)=O)cc1-c1nnc2c(n1)c(C)nn2-c1ccc(C)cc1`, for which the Ki at Carbonic anhydrase 12 was found to be 0.0775 µM; at Carbonic anhydrase 1, 4.49 µM; on Carbonic anhydrase 2, 7.07 µM.

Consider `CCOc1ccc(S(=O)(=O)N[C@H](C)CC)cc1-c1nnc2c(n1)c(C)nn2-c1ccc(C)cc1`, for which the IC50 with MDA-MB-231 [1], with MCF7 [2], in the assay with MCF7 [3] and with MDA-MB-231 [4] was more than 200 µM in each case. Further, the Ki on Carbonic anhydrase 9 is 0.0266 µM; at Carbonic anhydrase 12 it was 0.0703 µM; on Carbonic anhydrase 1, 3.72 µM; on Carbonic anhydrase 2, more than 50 µM.

As for `CCOc1ccc(S(=O)(=O)NC[C@H](C)O)cc1-c1nnc2c(n1)c(C)nn2-c1ccc(C)cc1`, the IC50 in the assay on MDA-MB-231 [1], with MCF7 [2], in the assay with MCF7 [3] and in the assay on MDA-MB-231 [4] was more than 200 µM each time. Also, the Ki on Carbonic anhydrase 9 is 0.0138 µM; on Carbonic anhydrase 12, 0.0828 µM; at Carbonic anhydrase 1, 0.81 µM; on Carbonic anhydrase 2, more than 50 µM.

Turning to `CCOc1ccc(S(=O)(=O)N2CCN(C)CC2)cc1-c1nnc2c(n1)c(C)nn2-c1ccc(Cl)cc1`, the IC50 in the assay with MDA-MB-231 [1], in the assay with MCF7 [2], in the assay with MCF7 [3] and with MDA-MB-231 [4] was more than 200 µM each time. Moreover, the Ki on Carbonic anhydrase 9 is 0.403 µM; at Carbonic anhydrase 12, 0.0815 µM; on Carbonic anhydrase 1, 0.854 µM; on Carbonic anhydrase 2, more than 50 µM.

With `CCOc1ccc(S(=O)(=O)N2CCNCC2)cc1-c1nnc2c(n1)c(C)nn2-c1ccc(Cl)cc1`, the Ki is 0.0931 µM on Carbonic anhydrase 12, 4.21 µM at Carbonic anhydrase 1 and more than 50 µM at Carbonic anhydrase 2.

Take `CCOc1ccc(S(=O)(=O)NCCO)cc1-c1nnc2c(n1)c(C)nn2-c1ccc(C)cc1`: the Ki at Carbonic anhydrase 9 was 0.0245 µM; on Carbonic anhydrase 12, 0.0915 µM; on Carbonic anhydrase 1, 0.605 µM; at Carbonic anhydrase 2, more than 50 µM.

In the case of `CCOc1ccc(S(=O)(=O)N2CCN(C)CC2)cc1-c1nnc2c(n1)c(C)nn2-c1ccc(S(=O)(=O)N2CCN(C)CC2)c(Cl)c1`, the Ki on Carbonic anhydrase 9 is 0.417 µM; at Carbonic anhydrase 12 it was 0.0794 µM; at Carbonic anhydrase 1 it was 0.571 µM; at Carbonic anhydrase 2, more than 50 µM.

Take `CCOc1ccc(S(=O)(=O)N2CCN(C)CC2)cc1-c1nnc2c(n1)c(C)nn2-c1ccc(C)cc1`: the Ki was 0.0254 µM on Carbonic anhydrase 9, 0.0781 µM on Carbonic anhydrase 12, 0.33 µM on Carbonic anhydrase 1 and more than 50 µM on Carbonic anhydrase 2.

As for `CCOc1ccc(S(=O)(=O)N[C@@H](C)CC)cc1-c1nnc2c(n1)c(C)nn2-c1ccc(C)cc1`, the IC50 with MDA-MB-231 [1], with MCF7 [2], in the assay on MCF7 [3] and in the assay with MDA-MB-231 [4] was more than 200 µM each time. The Ki is 0.0277 µM at Carbonic anhydrase 9, 0.0776 µM on Carbonic anhydrase 12, 3.44 µM at Carbonic anhydrase 1 and more than 50 µM on Carbonic anhydrase 2.

For `CCOc1ccc(S(=O)(=O)NC[C@@H](C)O)cc1-c1nnc2c(n1)c(C)nn2-c1ccc(C)cc1`, the IC50 in the assay with MDA-MB-231 [1], in the assay on MCF7 [2], in the assay on MCF7 [3] and in the assay with MDA-MB-231 [4] was more than 200 µM throughout. The Ki at Carbonic anhydrase 9 was 0.0356 µM; on Carbonic anhydrase 12, 0.0778 µM; at Carbonic anhydrase 1 it was 0.798 µM; at Carbonic anhydrase 2 it was more than 50 µM.

A word on the IC50: it is the concentration that gives 50% inhibition. In general, Ki refers to the dissociation constant of the complex between target and ligand, obtained from inhibition or displacement. High values mean weaker binding, low ones tighter binding.
